Source: PubChem BioAssay (NCI)
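96-well plates; 48 h exposure; 5 concentrations. Endpoints by linear interpolation between flanking doses. Not reached: highest tested concentration assigned. Abbreviation: GI50, concentration required for 50% inhibition of growth. TGI marks complete inhibition of growth.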

What was measured:
Assay in all cases: DTP human tumour cell line panel, 48 h
IGROV1 ovarian = tested on: IGROV1 ovarian
HOP-92 NSCLC = tested on: HOP-92 NSCLC
SN12C renal = tested on: SN12C renal
RPMI-8226 leukemia = tested on: RPMI-8226 leukemia
A549 NSCLC = tested on: A549 NSCLC
U251 CNS = tested on: U251 CNS
SK-MEL-5 melanoma = tested on: SK-MEL-5 melanoma
K-562 leukemia = tested on: K-562 leukemia
MDA-MB-231 breast = tested on: MDA-MB-231 breast
OVCAR-4 ovarian = tested on: OVCAR-4 ovarian

Row | SMILES | GI50 (IGROV1 ovarian) [µM] | TGI (IGROV1 ovarian) [µM] | GI50 (HOP-92 NSCLC) [µM] | TGI (HOP-92 NSCLC) [µM] | GI50 (SN12C renal) [µM] | TGI (SN12C renal) [µM] | GI50 (RPMI-8226 leukemia) [µM] | TGI (RPMI-8226 leukemia) [µM] | GI50 (A549 NSCLC) [µM] | TGI (A549 NSCLC) [µM] | GI50 (U251 CNS) [µM] | TGI (U251 CNS) [µM] | GI50 (SK-MEL-5 melanoma) [µM] | TGI (SK-MEL-5 melanoma) [µM] | GI50 (K-562 leukemia) [µM] | TGI (K-562 leukemia) [µM] | GI50 (MDA-MB-231 breast) [µM] | TGI (MDA-MB-231 breast) [µM] | GI50 (OVCAR-4 ovarian) [µM] | TGI (OVCAR-4 ovarian) [µM]
1 | COc1ccc(-n2cc(-c3ccc(Cl)cc3)[nH]c2=S)cc1Cl | 30.2 | > 100 | 17.2 | 43.5 | 39.1 | > 100 | 55.3 | > 100 | 46.6 | > 100 | 32.3 | > 100 | 42.1 | > 100 | > 100 | > 100 | 22.1 | 82.2 | 20.7 | 48.6
2 | CC(=O)NC1=NC(=O)/C(=C/c2ccc(Cl)cc2Cl)N1C | – | > 100 | – | > 100 | – | – | – | – | – | > 100 | – | > 100 | – | > 100 | – | – | – | > 100 | – | > 100
3 | COC(=O)C1=C(O)C(C(=O)OC)[C@@]2(O)[C@@H](C(=O)OC)C(c3ccccc3C(F)(F)F)C[C@@H]1[C@@H]2C(=O)OC (some centres not stated) | – | – | 15.8 | 37.9 | 4.33 | 15.2 | 2.4 | > 100 | 10.4 | 27 | 2.01 | 7.28 | 3.46 | 13.2 | 2.15 | 9.52 | 7.99 | 22.4 | – | –
4 | OCCOCn1nc(-c2ccccc2)nc1-c1cnccn1 | – | > 100 | – | > 100 | – | > 100 | – | > 100 | – | > 100 | – | > 100 | – | > 100 | – | > 100 | – | > 100 | – | > 100
5 | COC(=O)C(=O)C(C(=O)C(=O)Nc1ccc(Cl)cc1Cl)c1nc2ccc(Cl)cc2[nH]c1=O (configuration not stated) | – | > 100 | – | > 100 | – | > 100 | – | – | – | > 100 | – | > 100 | – | > 100 | – | – | – | > 100 | – | > 100
6 | COc1ccc(-c2ccc(/C=N/n3cnn(CN4CCN(C)CC4)c3=S)o2)c([N+](=O)[O-])c1 | 54.7 | > 100 | 17.1 | 58.4 | – | – | 21.9 | 54.2 | 39.5 | > 100 | 23.5 | 65.7 | 23.9 | 62.7 | 33.6 | > 100 | 25.3 | 77.1 | > 100 | > 100
7 | Cc1c(Br)cccc1NC(=O)c1sc2nc3c(cc2c1N)CN(Cc1ccccc1)CC3 | 0.47 | > 50 | 0.509 | 10.7 | 0.384 | > 50 | – | – | 0.491 | 19.6 | 0.242 | 5.58 | 0.201 | 8.18 | – | – | 0.531 | 38.1 | 0.523 | 8.89
8 | CC([C@H]1CCC2C3CCC4C(=O)C(NC=O)=CC[C@]4(C)C3CC[C@@]21C)N(C)C (some centres not stated) | 2.29 | – | 4.64 | 12.7 | 2.92 | 14.9 | 2.75 | 18 | 3.81 | 12.7 | 3.43 | 15.2 | 1.54 | 3.04 | 0.965 | > 23.8 | 2.36 | 7.07 | 5.12 | 26.6
9 | CC(C)n1c2c(c3ccccc3c1=O)C(=O)c1ccccc1-2 | – | > 100 | – | > 100 | – | > 100 | – | > 100 | – | > 100 | – | > 100 | – | > 100 | – | > 100 | – | > 100 | – | > 100
10 | COc1cc(C2CC(c3ccc(C)cc3)=NN2C(C)=O)ccc1Oc1ccnc2cc(Cl)ccc12 (configuration not stated) | 38.2 | > 100 | 30.1 | > 100 | > 100 | > 100 | > 100 | > 100 | – | – | 1.41 | > 100 | > 100 | > 100 | > 100 | > 100 | 11.3 | > 100 | – | –
11 | CC(CC(C)[C@H]1CCC2[C@H]3C(CC[C@@]21C)[C@@]1(C)CCC(O)C[C@H]1C[C@@H]3O)C(=O)O (some centres not stated) | – | > 100 | – | > 100 | – | > 100 | – | > 100 | – | > 100 | – | > 100 | – | – | – | > 100 | – | > 100 | – | > 100
12 | CCCCC#Cc1c(I)n(C2OC(CO[Si](C)(C)C(C)(C)C)C3OC(C)(C)OC32)c(=O)[nH]c1=O (configuration not stated) | 3.32 | 15.4 | 3.04 | 8.08 | 10.2 | 22.2 | 2.17 | 5.28 | 16.6 | 34.2 | 21.9 | > 100 | – | – | 2.02 | 5.02 | 2.44 | 9.55 | 3.84 | 16.1
13 | COc1cc(C2C3=C(COC3=O)N(CCO)c3cc4c(cc32)OCCO4)cc(OC)c1O (configuration not stated) | 1.17 | > 16.5 | > 50 | > 50 | 4.1 | > 50 | 2.18 | > 50 | 9.71 | > 50 | 2 | > 50 | 1.29 | > 20.5 | 1.89 | > 50 | 4.41 | > 50 | 3.78 | > 50
14 | CN1CCN(c2nc(NCCNc3ccnc4cc(Cl)ccc34)c3ccccc3n2)CC1 | 2.51 | 7.94 | 1.13 | 2.6 | 2.03 | 5.6 | 1.71 | 4.26 | 1.44 | 5.97 | 2.3 | 10.1 | 1.72 | 3.12 | 0.721 | 3.82 | 1.37 | 3.14 | 2.15 | 6.26
15 | O=C(NCCc1ccccc1)C(c1csc2ccccc12)N(C(=O)CCl)c1ccc(-c2cnco2)cc1 (configuration not stated) | 0.161 | 0.331 | 0.174 | 0.443 | 0.412 | 2.03 | 0.171 | 0.474 | 0.393 | 1.64 | 0.163 | 0.644 | 1.62 | 3.01 | 0.509 | > 20.7 | 0.226 | 1.36 | 1.7 | 5.14
